Results from PMC3885398, “Evaluation of the Antitumor Effects of BPR1J-340, a Potent and Selective FLT3 Inhibitor, Alone or in Combination with an HDAC Inhibitor, Vorinostat, in AML Cancer” (PLoS ONE, 2014).
“And” between values parts separate entries of the source, which are not always exact repeats. Equal values may be shown once.

Molecular target: T1, FLT3 D835Y (Homo sapiens, UniProt P36888, D835Y)
T1 sequence (P36888 27-993 D835Y): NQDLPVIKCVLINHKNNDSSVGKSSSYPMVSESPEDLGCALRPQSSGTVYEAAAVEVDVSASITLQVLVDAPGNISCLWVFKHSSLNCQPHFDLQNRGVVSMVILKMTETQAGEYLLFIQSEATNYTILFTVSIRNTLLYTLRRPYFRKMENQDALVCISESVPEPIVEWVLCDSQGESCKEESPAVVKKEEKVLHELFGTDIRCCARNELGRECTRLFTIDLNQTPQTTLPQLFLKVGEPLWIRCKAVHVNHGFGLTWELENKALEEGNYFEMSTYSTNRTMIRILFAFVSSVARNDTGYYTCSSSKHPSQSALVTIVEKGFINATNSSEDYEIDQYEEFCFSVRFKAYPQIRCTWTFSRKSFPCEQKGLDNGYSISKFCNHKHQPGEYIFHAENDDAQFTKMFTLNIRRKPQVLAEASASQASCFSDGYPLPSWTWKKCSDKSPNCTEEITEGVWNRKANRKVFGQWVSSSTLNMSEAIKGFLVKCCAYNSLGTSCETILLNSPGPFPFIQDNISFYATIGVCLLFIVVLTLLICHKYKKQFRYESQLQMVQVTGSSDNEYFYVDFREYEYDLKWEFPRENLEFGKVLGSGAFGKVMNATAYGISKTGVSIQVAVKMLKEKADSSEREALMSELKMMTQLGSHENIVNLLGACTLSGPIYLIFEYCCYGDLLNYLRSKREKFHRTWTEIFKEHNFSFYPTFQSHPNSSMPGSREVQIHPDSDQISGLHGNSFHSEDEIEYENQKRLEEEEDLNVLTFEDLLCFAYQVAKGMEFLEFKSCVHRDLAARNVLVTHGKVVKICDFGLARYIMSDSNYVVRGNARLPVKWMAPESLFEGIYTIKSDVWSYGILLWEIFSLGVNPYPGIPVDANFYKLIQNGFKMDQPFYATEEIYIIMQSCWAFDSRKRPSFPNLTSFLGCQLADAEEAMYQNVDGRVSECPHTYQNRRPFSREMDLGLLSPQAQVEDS
Assay: FLT3 phosphorylation in transfected HEK293T cells, Western blot
Format: cell-based
Design: expressed in transfected cells; host or cells: HEK293T
Conditions: HEK293T cells expressing FLT3-D835Y, 1 hr, FLT3 ligand 50 ng/mL 5 min
Description: Cells were lysed in lysis buffer (50 mM Tris, pH 8.0, 150 mM NaCl, 1% Triton X-100, 0.5% sodium deoxycholate, 0.1% SDS, 1 mM sodium orthovanadate, 1 mM PMSF, and 1 mM DTT). Protein lysates were resolved by SDS-PAGE and transferred onto a polyvinylidene difluoride (PVDF) membrane (Millipore, Bedford, MA, USA). The membranes were immunoblotted with appropriate antibodies and detected using the SuperSignal reagent (Pierce, Rockford, IL, USA) followed by exposure to X-ray film.
To address whether BPR1J-340 was able to inhibit the FLT3 signaling pathway in FLT3-driven cells, MV4;11 cells were treated with different concentrations of BPR1J-340 for 1 hour, and the phosphorylation status of FLT3 and STAT5 (Signal Transducer and Activator of Transcription 5), a critical down-stream modulator that plays a major role in FLT3-ITD signal transduction for cell expansion and survival, was examined by Western blot analysis. […] To investigate the difference in sensitivity between FLT3-WT and the activating mutants FLT3-ITD and FLT3-D835Y to BPR1J-340, HEK293T cells engineered to express FLT3-WT or mutants FLT3 (FLT3-ITD, FLT3-D835Y) were analyzed. […]
Figure 2 BPR1J-340 inhibits FLT3-dependent signaling. […] The phosphorylation status of FLT3 and STAT5 were evaluated by Western blot analysis. […] The FLT3 phosphorylation status in the transfected cells was evaluated by Western blot analysis.

For CCc1cc(NC(=O)NCc2ccc(-c3cc(NC(=O)c4ccc(CN5CCN(C)CC5)cc4)[nH]n3)cc2)no1 [BPR1J-340, N1-(3-4-[([(5-ethyl-3-isoxazolyl)amino]carbonylamino)methyl]phenyl-1H-5-pyrazolyl)-4-[(4-methylpiperazino)methyl]benzamide], the IC50 was 0.01 to 0.1 µM and ~0.1 µM.
